The values below come from patent EP0201094A2, “Thieno[2,3-d]imidazole derivatives and process for their preparation” (Hafslund Nycomed Pharma Aktiengesellschaft, priority 1985, dated 1986).

The assay concerns Magensekretion. Description: Gastric secretion in pylorus-ligated conscious female rats after oral dosing. Type of assay: in vivo, Ratten (Stamm: Charles River CD). The conditions noted are these: for Säure gesamt / Säurekonzentration / Menge: pylorus ligation 60 min after dosing; for Säure gesamt / Säurekonzentration: measured 4 h after ligation; for Menge: stomach content measured 4 h after ligation; for Hemmung der Magensekretion: result in words, increasing oral doses of 125, 250 and 500 µmol/kg. On the procedure:
Die Substanzen wurden in 20 %-igem Dimethylsulfoxid gelöst und wachen weiblichen Ratten - (Stamm: Charles River CD) in ansteigenden Dosen von 125, 250 und 500 µmol/kg mit dem einheitlichen Dosierungsvolumen von 20 ml/kg oral appliziert. 60 Minuten später wurden die Tiere einer Pylorusligatur unterzogen. 4 Stunden nach Setzen der Pylorusligatur wurde die Säurekonzentration und der Gesamtsäuregehalt im Magenvolumen der Tiere bestimmt. Die Kontrollgruppe erhielt 20 ml/kg Dimethylsulfoxid bzw. 20 ml/kg destilliertes Wasser.

With `COc1ccnc(C[S+]([O-])c2nc3ccsc3[nH]2)c1` (centres unmarked) [Verbindung B], the “Hemmung der Magensekretion” value is “signifikante, dosisabhängige Hemmung der Magensekretion”. For the setting “125 µmol/kg oral”, this compound gave a Säure gesamt of 0.37±0.07 mÄq, a Säurekonzentration of 0.08±0.007 mÄq/ml and a Menge of 4.5 ± 0.6 mL. Under “250 µmol/kg oral”, this compound returned a Säure gesamt of 0.27±0.05 mÄq, a Säurekonzentration of 0.05±0.004 mÄq/ml and a Menge of 5.0 ± 0.6 mL. Besides, for the setting “500 µmol/kg oral”, the Säure gesamt stood at 0.14±0.02 mÄq, the Säurekonzentration was found to be 0.03±0.004 mÄq/ml and the Menge was found to be 4.5 ± 0.4 mL.
Regarding `COc1c(C)cnc(C[S+]([O-])c2nc3cc(C(C)=O)sc3[nH]2)c1C` (centres unmarked) [Verbindung A, 5-Acetyl-2-((4-methoxy-3,5-dimethyl-2-pyridyl)-methylsulfinyl)-3H-thieno(2,3-d)imidazol], the “Hemmung der Magensekretion” value was “signifikante, dosisabhängige Hemmung der Magensekretion”. Where the note is “125 µmol/kg oral”, this compound showed a Säure gesamt of 0.37±0.06 mÄq, a Säurekonzentration of 0.08±0.008 mÄq/ml and a Menge of 4.7 ± 0.4 mL. Where the note is “250 µmol/kg oral”, this compound registered a Säure gesamt of 0.16±0.03 mÄq, a Säurekonzentration of 0.04±0.006 mÄq/ml and a Menge of 3.4 ± 0.3 mL. Besides, under “500 µmol/kg oral”, the Säure gesamt was 0.13±0.03 mÄq, the Säurekonzentration was found to be 0.04±0.005 mÄq/ml and the Menge was determined as 3.1 ± 0.4 mL.
